This is an account of results in ChEMBL document CHEMBL6096669, “Design and synthesis of novel derivatives of bisepoxylignans as potent anti-inflammatory agents involves the modulation of the M1/M2 microglia phenotype via TLR4/NF-κB signaling pathway” (Eur J Med Chem, 2025).

Series [1] in a line: Cytotoxicity against mouse BV-2 cells assessed as cell viability at 10 uM measured after 24 hrs by MTT assay relative to control. It counts as toxicity, cell-based. The settings on record: read-out: Activity.
The nature of series [2]: (§1) Inhibition of LPS-induced NO production in mouse BV-2 cells at 10 uM measured after 24 hrs followed by induced with LPS for another 24 hrs by ELISA relative to control. The series is classed as functional.
Series [3] concerns BV-2. Described as §1. It counts as functional.
Series [4] is described as follows: Permeability of compound in PBS/EtOH (70:30) buffer incubated for 18 hrs by PAMPA-BBB assay. Background: In PAMPA a lipid-coated filter parts donor from acceptor wells.
In series [5] the test system is BV-2. The series can be described thus: Anti-inflammatory activity against LPS-induced mouse BV-2 cells assessed as decrease in LPS-induced Cyclooxygenase-2 mRNA expression at 20 uM incubated for 4 hrs followed by LPS induced for 12 hrs by RT-PCR analysis relative to control. The series is classed as functional, cell-based. The following applies: time 16.0 hrs.

The term inhibition denotes the change of the read-out against control, counted positive when it falls.

The structures appear in SMILES notation. Activity calls are given as the source filed them. The calls are words filed in the database; no cut-off is given here.

Turning to `O=c1[nH]c2ccc(Nc3ncnc4c3ccn4Cc3ccc(F)cc3F)cc2[nH]1`, in series [1], the viability at 24 h, 10 µM was 98.2%. Besides, the inhibition at 10 µM in series [2] is 54.3%.

For the molecule `O=c1[nH]c2ccc(Nc3ncnc4c3ccn4Cc3c(Cl)cccc3Cl)cc2[nH]1`, in series [1], the viability at 24 h, 10 µM stood at 57.6%. The inhibition entry in the series with BV-2 [3] was “inactive”.

With `COc1cc(Cn2ccc3c(Nc4ccc5c(c4)OCO5)ncnc32)cc(OC)c1`, the viability at 24 h, 10 µM in series [1] amounted to 93.2%. The inhibition at 10 µM in series [2] amounted to 70.2%.

Consider `O=c1[nH]c2ccc(Nc3ncnc4c3ccn4Cc3ccc(Cl)c(F)c3)cc2[nH]1`, for which the viability at 24 h, 10 µM in series [1] amounted to 83.1%. In addition, the inhibition at 10 µM in series [2] amounted to 103%.

For the molecule `O=c1[nH]c2ccc(Nc3ncnc4c3ccn4Cc3cc(C(F)(F)F)cc(C(F)(F)F)c3)cc2[nH]1`, the viability at 24 h, 10 µM in series [1] was 58.5%. Also, in the series with BV-2 [3], the inhibition result was “inactive”.

With `Fc1ccc(Cn2ccc3c(Nc4ccc5scnc5c4)ncnc32)c(Cl)c1`, the viability at 24 h, 10 µM in series [1] amounted to 61.7%. For the same molecule, the inhibition result in the series on BV-2 [3] was “inactive”.

Consider `O=c1[nH]c2ccc(Nc3ncnc4c3cnn4Cc3cccc(F)c3Cl)cc2[nH]1`, for which, in series [1], the viability at 24 h, 10 µM was found to be 83.2%. Also, the inhibition at 10 µM in series [2] was determined as 96.2%.

On to `O=c1[nH]c2ccc(Nc3ncnc4c3ccn4Cc3ccc(Cl)cc3F)cc2[nH]1`, for which the viability at 24 h, 10 µM in series [1] amounted to 72.1%. Further, the inhibition result in the series on BV-2 [3] is “inactive”.

As for `O=c1[nH]c2ccc(Nc3ncnc4c3ccn4Cc3ccc(F)cc3Cl)cc2o1`, the viability at 24 h, 10 µM in series [1] was 85.7%. Also, the inhibition at 10 µM in series [2] was 54.3%.

For the molecule `O=C1Cc2cc(Nc3ncnc4c3ccn4Cc3ccc(F)cc3Cl)ccc2N1`, in series [1], the viability at 24 h, 10 µM stood at 56.6%. The inhibition result in the series on BV-2 [3] is “inactive”.

For the molecule `O=c1[nH]c2ccc(Nc3ncnc4c3ccn4Cc3cc(F)cc(Cl)c3)cc2[nH]1`, the viability at 24 h, 10 µM in series [1] stood at 104%. The inhibition at 10 µM in series [2] was found to be 45.7%.

As to `O=C(Cn1ccc2c(Nc3ccc4[nH]c(=O)[nH]c4c3)ncnc21)N1CCOCC1`, the viability at 24 h, 10 µM in series [1] was found to be 102%. Further, in series [2], the inhibition at 10 µM is 54.3%.

Take `Cc1ccc(Cn2ccc3c(Nc4ccc5[nH]c(=O)[nH]c5c4)ncnc32)cc1`: the viability at 24 h, 10 µM in series [1] stood at 77.2%. In addition, the inhibition result in the series on BV-2 [3] is “inactive”.

Take `COc1ccc(Cn2ccc3c(Nc4ccc5[nH]c(=O)[nH]c5c4)ncnc32)cc1`: the viability at 24 h, 10 µM in series [1] was found to be 115%. Moreover, the inhibition at 10 µM in series [2] was 76.6%.

With `COc1cc(Cn2ccc3c(Nc4ccc5[nH]c(=O)[nH]c5c4)ncnc32)cc(OC)c1`, in series [1], the viability at 24 h, 10 µM was 107%. Further, the inhibition at 10 µM in series [2] was determined as 42.5%.

In the case of `O=c1[nH]c2ccc(Nc3ncnc4c3ccn4Cc3ccc(F)c(Cl)c3)cc2[nH]1`, the viability at 24 h, 10 µM in series [1] was 57.3%. The inhibition entry in the series on BV-2 [3] is “inactive”.

As for `COc1cc(Cn2ccc3c(Nc4ccc5c(c4)CC(=O)N5)ncnc32)cc(OC)c1`, the viability at 24 h, 10 µM in series [1] is 53%. Further, in the series with BV-2 [3], the inhibition entry was “inactive”.

In the case of `O=c1[nH]c2ccc(Nc3ncnc4c3ccn4Cc3cc(Cl)ccc3F)cc2[nH]1`, in series [1], the viability at 24 h, 10 µM amounted to 70.3%. The inhibition entry in the series on BV-2 [3] is “inactive”.

On to `O=c1[nH]c2ccc(Nc3ncnc4c3ccn4Cc3ccc(Cl)cc3)cc2[nH]1`, for which, in series [1], the viability at 24 h, 10 µM was determined as 91.7%. Further, in series [2], the inhibition at 10 µM came out at 71.3%.

Turning to `O=c1[nH]c2ccc(Nc3ncnc4c3ccn4Cc3ccccc3)cc2[nH]1`, the viability at 24 h, 10 µM in series [1] was found to be 99.7%. In addition, the inhibition at 10 µM in series [2] amounted to 76.6%.

Take `COc1cc(Cn2ccc3c(Nc4ccc5c(cnn5C)c4)ncnc32)cc(OC)c1`: the viability at 24 h, 10 µM in series [1] stood at 62.5%. Further, in series [2], the inhibition at 10 µM worked out at 63.8%.

Take `COc1cc(Cn2ccc3c(Nc4ccc5cn[nH]c5c4)ncnc32)cc(OC)c1`: the viability at 24 h, 10 µM in series [1] was 118%. The inhibition at 10 µM in series [2] amounted to 77.7%.

As to `O=c1[nH]c2ccc(Nc3ncnc4c3ccn4Cc3cc(F)ccc3F)cc2[nH]1`, in series [1], the viability at 24 h, 10 µM turned out to be 50.7%. For the same molecule, the inhibition entry in the series with BV-2 [3] was “inactive”.

Take `CC1(C)S[C@@H]2[C@H](NC(=O)Cc3ccccc3)C(=O)N2[C@H]1C(=O)[O-].[Na+]` [PENICILLIN G SODIUM]: the “log Pe” value in series [4] is -6.06.

As for `Fc1ccc(Cn2ccc3c(Nc4ccc5c(c4)OCO5)ncnc32)c(Cl)c1`, the viability at 24 h, 10 µM in series [1] was 96.9%. Besides, the inhibition at 10 µM in series [2] was 46.8%.

In the case of `COc1cc([C@H]2OC[C@H]3[C@@H]2CO[C@@H]3c2cc(OC)c(O)c(OC)c2)cc(OC)c1O` [SYRINGARESINOL], in series [1], the viability at 24 h, 10 µM came out at 91%. Moreover, the inhibition at 10 µM in series [2] was determined as 75.6%.

`COc1cc(Cn2ccc3c(Nc4ccc5scnc5c4)ncnc32)cc(OC)c1`: in series [1], the viability at 24 h, 10 µM was 84.5%. The inhibition result in the series with BV-2 [3] was “inactive”.

Regarding `O=c1[nH]c2ccc(Nc3ncnc4c3cnn4Cc3ccc(Cl)cc3F)cc2[nH]1`, in series [1], the viability at 24 h, 10 µM amounted to 57.8%. Besides, the inhibition entry in the series with BV-2 [3] was “inactive”.

In the case of `O=c1[nH]c2ccc(Nc3ncnc4c3cnn4Cc3cc(F)cc(Cl)c3)cc2[nH]1`, the viability at 24 h, 10 µM in series [1] came out at 92.9%. For the same molecule, in series [2], the inhibition at 10 µM is 61.7%.

For the molecule `O=c1[nH]c2ccc(Nc3ncnc4c3ccn4Cc3c(F)cccc3Cl)cc2[nH]1`, the viability at 24 h, 10 µM in series [1] was 77.2%. The inhibition result with BV-2 [3] was “inactive”.

On to `O=c1[nH]c2ccc(Nc3ncnc4c3ccn4Cc3ccc(F)cc3Cl)cc2[nH]1`, for which the viability at 24 h, 10 µM in series [1] came to 84.5%. Moreover, the inhibition at 10 µM in series [2] was found to be 78.5%.

In the case of `O=c1[nH]c2ccc(Nc3ncnc4c3ccn4Cc3cccc(Cl)c3F)cc2[nH]1`, the viability at 24 h, 10 µM in series [1] was 73%. Moreover, the inhibition result with BV-2 [3] is “inactive”.

As for `COc1cc(Cn2ccc3c(Nc4ccc5[nH]c(=O)oc5c4)ncnc32)cc(OC)c1`, in series [1], the viability at 24 h, 10 µM stood at 59.3%. The inhibition entry in the series on BV-2 [3] was “inactive”.

Regarding `COc1ccc2c3c1O[C@H]1C[C@@H](O)C=C[C@@]31CCNC2`, the viability at 24 h, 10 µM in series [1] stood at 91.2%. In series [2], the inhibition at 10 µM came out at 55.7%. For the same molecule, in the series on BV-2 [5], the result was Active.

Consider `O=c1[nH]c2ccc(Nc3ncnc4c3cnn4Cc3cccc(Cl)c3F)cc2[nH]1`, for which the viability at 24 h, 10 µM in series [1] turned out to be 53.3%. For the same molecule, the inhibition result in the series on BV-2 [3] is “inactive”.

In the case of `COc1cccc(Cn2ccc3c(Nc4ccc5[nH]c(=O)[nH]c5c4)ncnc32)c1`, the viability at 24 h, 10 µM in series [1] was determined as 88.5%. Moreover, in series [2], the inhibition at 10 µM was determined as 63.8%.

With `Fc1ccc(Cn2ccc3c(Nc4ccc5cn[nH]c5c4)ncnc32)c(Cl)c1`, in series [1], the viability at 24 h, 10 µM was 76.2%. For the same molecule, the inhibition entry in the series on BV-2 [3] was “inactive”.

In the case of `O=C(Cn1ccc2c(Nc3ccc4[nH]c(=O)[nH]c4c3)ncnc21)c1ccccc1`, in series [1], the viability at 24 h, 10 µM came out at 74.3%. Also, the inhibition entry in the series on BV-2 [3] is “inactive”.

Turning to `CCn1cc(C(=O)O)c(=O)c2cc(F)c(N3CCNCC3)nc21` [ENOXACIN], in series [4], the “log Pe” value is given as -6.24.

For the molecule `O=c1[nH]c2ccc(Nc3ncnc4c3cnn4Cc3cc(Cl)cc(Cl)c3)cc2[nH]1`, in series [1], the viability at 24 h, 10 µM was found to be 52.2%. Also, the inhibition result in the series with BV-2 [3] is “inactive”.

For `COc1ccc(Cn2ccc3c(Nc4ccc5[nH]c(=O)[nH]c5c4)ncnc32)cc1OC`, in series [1], the viability at 24 h, 10 µM worked out at 75.2%. The inhibition entry with BV-2 [3] is “inactive”.

Take `O=c1[nH]c2ccc(Nc3ncnc4c3ccn4Cc3ccc4c(c3)OCO4)cc2[nH]1`: the viability at 24 h, 10 µM in series [1] came to 89.3%. For the same molecule, in series [2], the inhibition at 10 µM was found to be 56.3%.

As to `Cc1cccc(Cn2ccc3c(Nc4ccc5[nH]c(=O)[nH]c5c4)ncnc32)c1`, the viability at 24 h, 10 µM in series [1] was 59%. Besides, the inhibition entry with BV-2 [3] was “inactive”.

Consider `O=c1[nH]c2ccc(Nc3ncnc4c3ccn4Cc3ccc(I)cc3)cc2[nH]1`, for which the viability at 24 h, 10 µM in series [1] amounted to 98.7%. In addition, in series [2], the inhibition at 10 µM stood at 74.5%.

On to `O=c1[nH]c2ccc(Nc3ncnc4c3ccn4Cc3cccc4cccnc34)cc2[nH]1`, for which the viability at 24 h, 10 µM in series [1] was 84.7%. The inhibition at 10 µM in series [2] amounted to 43.8%.

Consider `O=c1[nH]c2ccc(Nc3ncnc4c3ccn4Cc3cccc(F)c3Cl)cc2[nH]1`, for which the viability at 24 h, 10 µM in series [1] came out at 42.2%. For the same molecule, the inhibition entry in the series with BV-2 [3] was “inactive”.

Turning to `O=c1[nH]c2ccc(Nc3ncnc4c3ccn4Cc3cccc4ccccc34)cc2[nH]1`, the viability at 24 h, 10 µM in series [1] came out at 59.7%. Further, the inhibition entry in the series with BV-2 [3] is “inactive”.

As for `Cn1ncc2cc(Nc3ncnc4c3ccn4Cc3ccc(F)cc3Cl)ccc21`, the viability at 24 h, 10 µM in series [1] worked out at 79.2%. In the series on BV-2 [3], the inhibition entry is “inactive”.

With `Cc1ccccc1Cn1ccc2c(Nc3ccc4[nH]c(=O)[nH]c4c3)ncnc21`, the viability at 24 h, 10 µM in series [1] worked out at 81.8%. The inhibition at 10 µM in series [2] was 63.5%.
